Patent US20090306201A1, “SELECTIVE INHIBITORS FOR TRANSFERASES” (University of Medicine and Dentistry of New Jersey, priority 2006, published 2009)
Structures can show the parent of a compound that is named as a salt. Where two headings read alike, the source gives them in different places.

Legend:
G9a = molecular target: T1, G9a (Homo sapiens, UniProt Q96KQ7); experiment: HKMT-inhibitor (HMT) assay, G9a; assay type: biochemical, Mammalian; conditions: recombinant HKMT, [3H]SAM, histone octamers or oligonucleosomes, average of duplicate
T1 construct: made in house
T1 sequence (Q96KQ7 1-1210): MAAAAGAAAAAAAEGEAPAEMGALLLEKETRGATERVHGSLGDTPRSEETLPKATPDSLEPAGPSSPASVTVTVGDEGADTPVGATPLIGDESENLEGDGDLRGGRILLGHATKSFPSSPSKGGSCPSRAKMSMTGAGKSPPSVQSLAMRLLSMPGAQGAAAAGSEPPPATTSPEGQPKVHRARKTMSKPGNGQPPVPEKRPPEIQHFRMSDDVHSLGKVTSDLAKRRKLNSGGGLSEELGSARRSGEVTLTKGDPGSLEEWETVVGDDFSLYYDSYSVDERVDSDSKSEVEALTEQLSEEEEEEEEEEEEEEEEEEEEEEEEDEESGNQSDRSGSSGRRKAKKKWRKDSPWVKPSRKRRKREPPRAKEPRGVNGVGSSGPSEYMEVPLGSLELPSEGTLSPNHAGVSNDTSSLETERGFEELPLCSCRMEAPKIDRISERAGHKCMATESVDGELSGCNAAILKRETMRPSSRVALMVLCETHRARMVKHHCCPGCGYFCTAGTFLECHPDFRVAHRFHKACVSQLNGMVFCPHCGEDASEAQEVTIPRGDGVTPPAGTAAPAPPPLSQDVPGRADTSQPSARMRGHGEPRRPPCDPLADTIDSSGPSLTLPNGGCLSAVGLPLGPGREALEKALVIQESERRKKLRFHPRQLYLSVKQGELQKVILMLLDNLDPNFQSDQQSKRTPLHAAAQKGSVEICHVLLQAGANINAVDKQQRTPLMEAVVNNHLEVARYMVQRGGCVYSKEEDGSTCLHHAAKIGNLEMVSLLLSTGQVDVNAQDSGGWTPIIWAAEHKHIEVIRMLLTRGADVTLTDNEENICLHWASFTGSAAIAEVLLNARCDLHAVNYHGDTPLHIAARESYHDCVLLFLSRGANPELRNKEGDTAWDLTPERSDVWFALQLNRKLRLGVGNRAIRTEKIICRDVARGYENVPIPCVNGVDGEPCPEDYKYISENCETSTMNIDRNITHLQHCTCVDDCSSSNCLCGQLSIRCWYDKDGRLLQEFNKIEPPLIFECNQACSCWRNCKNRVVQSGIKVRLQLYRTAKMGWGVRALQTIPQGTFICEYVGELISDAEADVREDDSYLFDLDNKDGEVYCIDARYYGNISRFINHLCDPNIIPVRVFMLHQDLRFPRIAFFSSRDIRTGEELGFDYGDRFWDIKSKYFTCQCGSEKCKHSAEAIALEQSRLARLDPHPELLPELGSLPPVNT
Method: (§1) Compounds were initially screened for their ability to inhibit the activity of various lysine methyltransferases in vitro using a biochemical HMT-assay. Mammalian HKMTs were produced and purified as recombinant affinity-tagged proteins using a bacterial or baculovirus expression system.
(§2) The HKMT-inhibitor assay was as follows: In a final reaction volume of 25 μl, 50-100 ng recombinant HKMT protein was incubated at 30° C. for 60 minutes in a reaction buffer containing 50 mM Tris-HCl, pH 8.5, 5 mM MgCl2, 4 mM DTT, 1 μM [^3H]-labeled S-adenosyl-L-methionine ([^3H]SAM, 82.0 Ci/mmol, 1.0 mCi/ml, Amersham Pharmacia Biotech) and 2 μg of substrate (histone octamers or oligonucleosomes). A constant HKMT protein concentration was tested against increasing amounts of compound dissolved in DMSO. As a control an HKMT-inhibitor assay was performed in the presence of 0.5 μl of DMSO (end concentration of DMSO in the reaction= 2%). The reaction was stopped by the addition of 6 μl 5×SDS sample buffer (60 mM Tris-HCl, pH 6.8, 25% glycerol, 2% SDS, 0.05% bromphenol blue, 14.4 mM 6-Mercaptoethanol), and the proteins were separated on a 12% SDS-polyacrylamide gel. Proteins were transferred onto an Immobilon-P membrane (Millipore) and visualized by Coomassie blue staining. The membrane was then sprayed with EN3HANCE (NEN) and exposed to Kodak XAR film overnight. […]

EZH2 = molecular target: T2, EZH2 (Homo sapiens, UniProt Q15910); experiment: HKMT-inhibitor (HMT) assay, EZH2; assay type: biochemical, Mammalian; conditions: meaning of the pair not explained
T2 construct: made in house
Method: as §1
The HKMT-inhibitor assay was as follows: In a final reaction volume of 25 μl, 50-100 ng recombinant HKMT protein was incubated at 30° C. for 60 minutes in a reaction buffer containing 50 mM Tris-HCl, pH 8.5, 5 mM MgCl2, 4 mM DTT, 1 μM [^3H]-labeled S-adenosyl-L-methionine ([^3H]SAM, 82.0 Ci/mmol, 1.0 mCi/ml, Amersham Pharmacia Biotech) and 2 μg of substrate (histone octamers or oligonucleosomes). A constant HKMT protein concentration was tested against increasing amounts of compound dissolved in DMSO. As a control an HKMT-inhibitor assay was performed in the presence of 0.5 μl of DMSO (end concentration of DMSO in the reaction= 2%). The reaction was stopped by the addition of 6 μl 5×SDS sample buffer (60 mM Tris-HCl, pH 6.8, 25% glycerol, 2% SDS, 0.05% bromphenol blue, 14.4 mM 6-Mercaptoethanol), and the proteins were separated on a 12% SDS-polyacrylamide gel. Proteins were transferred onto an Immobilon-P membrane (Millipore) and visualized by Coomassie blue staining. The membrane was then sprayed with EN3HANCE (NEN) and exposed to Kodak XAR film overnight. Coomassie blue stained histone bands were cut from the membrane and subjected to scintillation counting. All assays were performed in duplicate and the average of two experiments was used for the calculation of IC50 values. Only compounds with IC50<10 μM were selected for further experiments.

SET7/9 = molecular target: T3, SET7/9 (Homo sapiens, UniProt Q8WTS6); experiment: HKMT-inhibitor (HMT) assay, SET7/9; assay type: biochemical, Mammalian; conditions: recombinant HKMT, [3H]SAM, histone octamers or oligonucleosomes, average of duplicate
T3 construct: made in house
T3 sequence (Q8WTS6 1-366): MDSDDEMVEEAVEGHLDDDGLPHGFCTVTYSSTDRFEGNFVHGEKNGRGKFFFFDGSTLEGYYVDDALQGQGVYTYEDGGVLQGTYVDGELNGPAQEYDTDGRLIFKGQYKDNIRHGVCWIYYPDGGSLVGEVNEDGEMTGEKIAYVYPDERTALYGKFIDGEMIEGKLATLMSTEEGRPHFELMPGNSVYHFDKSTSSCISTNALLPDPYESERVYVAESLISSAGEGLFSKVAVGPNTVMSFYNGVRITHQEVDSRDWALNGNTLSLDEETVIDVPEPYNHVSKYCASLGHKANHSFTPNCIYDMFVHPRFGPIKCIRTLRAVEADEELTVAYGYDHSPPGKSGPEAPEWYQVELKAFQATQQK
Method: as §1, §2

PRSET-7 = molecular target: T4, PRSET-7 (Homo sapiens, UniProt Q9NQR1); experiment: HKMT-inhibitor (HMT) assay, PRSET-7; assay type: biochemical, Mammalian; conditions: recombinant HKMT, [3H]SAM, histone octamers or oligonucleosomes, average of duplicate
T4 construct: made in house
T4 sequence (Q9NQR1 1-393): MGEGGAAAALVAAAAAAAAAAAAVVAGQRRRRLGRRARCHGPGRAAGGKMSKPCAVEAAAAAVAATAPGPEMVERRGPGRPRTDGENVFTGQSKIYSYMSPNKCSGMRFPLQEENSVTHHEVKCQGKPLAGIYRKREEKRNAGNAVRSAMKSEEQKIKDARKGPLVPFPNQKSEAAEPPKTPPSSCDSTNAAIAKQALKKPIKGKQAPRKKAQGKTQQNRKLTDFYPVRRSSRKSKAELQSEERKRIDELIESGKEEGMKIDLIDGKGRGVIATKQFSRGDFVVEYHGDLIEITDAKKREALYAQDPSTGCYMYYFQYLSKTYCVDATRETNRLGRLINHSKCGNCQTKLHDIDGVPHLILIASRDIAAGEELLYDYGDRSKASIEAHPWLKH
Method: as §1, §2

H3K27me3 = experiment: Global histone lysine methylation pattern in treated cells, immunoblot, other marks (H3K27me3); assay type: cell-based; conditions: HeLa cells, acid-extracted histones, immunoblotting
Method: (§3) Compounds that show low IC50 values for specific inhibition of single HKMTs were pre-selected for cell culture based toxicity and growth inhibition. HeLa cells were seeded in a concentration of 1×10^5 cell/ml in Dulbecco's modified Eagle medium supplemented with 10% Bovine serum, 2 mM glutamine, and penicillin-streptomycin solution. After 24 hours, the medium was supplemented with various compound concentrations. After an additional 48 hours, cells were harvested. Viable cells were stained with Trypan-Blue and counted. Based on the number of living cells treated with a compound in comparison to the cell number of cells treated with DMSO, a toxicity index was calculated for each compound.
(§4) Compounds with a low toxicity index were used for cell viability tests (FIG. 3). The cells harvested from this cell viability test were analyzed using two techniques. In the first technique, living cells were counted as described above and growth curves plotted for cells treated with DMSO or a given compound. (FIG. 4). In the second technique, histones were isolated from cells upon treatment of compounds, and their effect on global histone lysine methylation patterns was analyzed. Harvested cells were subjected to an acid extraction procedure for histones. […] Histones were resolved by SDS-PAGE, transferred to nitrocellulose, and analyzed by immunoblotting using histone-modification-state specific antibodies.

[1] = tested on: global histone H4 lysine 20 monomethylation (H4K20me1); experiment: Global histone lysine methylation pattern in treated cells, immunoblot, H4K20me1; assay type: cell-based; conditions: HeLa cells, acid-extracted histones, immunoblotting
Method: as §3, §4

[2] = first of two values printed as x/y, read-out: IC50 EZH2 (first value of cell)
[3] = second of two values printed as x/y, read-out: IC50 EZH2 (second value of cell)

T2 sequence (Q15910 whole entry, species assumed): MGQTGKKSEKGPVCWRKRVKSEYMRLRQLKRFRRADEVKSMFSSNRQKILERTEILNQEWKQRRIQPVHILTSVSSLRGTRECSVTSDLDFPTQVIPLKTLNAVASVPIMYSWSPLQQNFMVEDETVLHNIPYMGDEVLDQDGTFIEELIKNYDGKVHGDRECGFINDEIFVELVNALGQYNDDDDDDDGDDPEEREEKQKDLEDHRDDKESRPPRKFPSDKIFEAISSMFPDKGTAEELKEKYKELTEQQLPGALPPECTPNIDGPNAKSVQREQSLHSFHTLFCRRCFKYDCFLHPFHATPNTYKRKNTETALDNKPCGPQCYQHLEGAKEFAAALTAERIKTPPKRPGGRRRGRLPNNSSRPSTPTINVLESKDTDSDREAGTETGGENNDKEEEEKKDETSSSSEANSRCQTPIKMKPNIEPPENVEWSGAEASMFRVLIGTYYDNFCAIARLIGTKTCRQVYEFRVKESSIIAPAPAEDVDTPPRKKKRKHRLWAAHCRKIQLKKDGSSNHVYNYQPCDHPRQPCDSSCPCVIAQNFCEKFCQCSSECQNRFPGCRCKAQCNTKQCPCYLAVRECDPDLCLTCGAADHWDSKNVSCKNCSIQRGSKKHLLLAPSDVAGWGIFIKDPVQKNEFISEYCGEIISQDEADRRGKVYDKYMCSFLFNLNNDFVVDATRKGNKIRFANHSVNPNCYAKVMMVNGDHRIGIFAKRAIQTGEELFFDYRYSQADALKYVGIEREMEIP
T2 sequence (O75530 whole entry partner, species assumed): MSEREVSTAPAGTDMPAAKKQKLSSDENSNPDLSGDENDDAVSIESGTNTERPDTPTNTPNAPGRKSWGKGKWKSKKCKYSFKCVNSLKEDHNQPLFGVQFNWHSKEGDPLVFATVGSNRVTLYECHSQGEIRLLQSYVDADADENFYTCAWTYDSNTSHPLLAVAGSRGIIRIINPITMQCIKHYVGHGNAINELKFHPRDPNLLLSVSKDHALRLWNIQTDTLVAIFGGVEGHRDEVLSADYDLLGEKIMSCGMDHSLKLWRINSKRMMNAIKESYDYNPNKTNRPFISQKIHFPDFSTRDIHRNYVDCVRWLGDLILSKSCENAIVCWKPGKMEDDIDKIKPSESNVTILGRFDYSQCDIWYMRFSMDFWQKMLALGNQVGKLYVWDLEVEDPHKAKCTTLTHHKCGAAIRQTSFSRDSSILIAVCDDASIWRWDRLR
T2 sequence (Q15022 whole entry partner, species assumed): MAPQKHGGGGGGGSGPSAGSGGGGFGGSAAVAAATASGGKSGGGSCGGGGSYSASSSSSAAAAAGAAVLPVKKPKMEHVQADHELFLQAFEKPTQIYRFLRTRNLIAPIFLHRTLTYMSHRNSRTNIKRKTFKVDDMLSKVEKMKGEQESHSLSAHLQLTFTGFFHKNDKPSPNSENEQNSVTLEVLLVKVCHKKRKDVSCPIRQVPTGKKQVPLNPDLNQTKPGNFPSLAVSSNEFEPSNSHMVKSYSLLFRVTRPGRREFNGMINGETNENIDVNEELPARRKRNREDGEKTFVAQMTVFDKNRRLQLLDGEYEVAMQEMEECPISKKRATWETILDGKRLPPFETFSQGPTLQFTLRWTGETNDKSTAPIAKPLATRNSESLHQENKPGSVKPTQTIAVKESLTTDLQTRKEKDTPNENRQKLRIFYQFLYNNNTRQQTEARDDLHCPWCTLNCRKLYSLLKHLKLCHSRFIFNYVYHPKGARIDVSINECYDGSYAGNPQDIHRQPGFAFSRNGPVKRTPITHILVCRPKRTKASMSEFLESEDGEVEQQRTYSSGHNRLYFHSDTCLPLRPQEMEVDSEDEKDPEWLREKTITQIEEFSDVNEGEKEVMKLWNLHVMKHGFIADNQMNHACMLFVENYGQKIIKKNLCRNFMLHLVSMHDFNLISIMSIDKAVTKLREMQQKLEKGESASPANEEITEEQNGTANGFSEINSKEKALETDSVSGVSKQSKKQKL

| melting point | IC50 (G9a) [µM] | IC50 (EZH2; [2]) [µM] | IC50 (EZH2; [3]) [µM] | IC50 (SET7/9) [µM] | IC50 (PRSET-7) [µM] | SMILES | other histone methylation marks (e.g. H3K27me3) (H3K27me3) | global histone H4 lysine 20 monomethylation (H4K20me1) [1] |
| --- | --- | --- | --- | --- | --- | --- | --- | --- |
| > 250 °C (dec.) | – | – | – | – | – | Nc1ccc2c(O)cc(C(=O)O)cc2c1 (as salt: hydrochloride) [Compound 1a, 7-amino-4-hydroxy-2-naphthoic acid] | – | – |
| > 250 °C (dec.) | – | – | – | – | – | CCOC(=O)c1cc2c3c(cccc3c1)NC(=O)O2 [Compound 6, ethyl 2,3-dihydro-2-oxonaphtho[1,8-de][1,3]oxazine-8-carboxylate] | – | – |
| – | > 500 | 3 | > 1000 | > 1380 | 3.8 | Nc1cc(S(=O)(=O)O)cc2cc(S(=O)(=O)O)cc(O)c12 [H-acid] | – | – |
| – | > 1450 | 25 | 400 | > 1450 | 9 | Cc1cc(O)c(C(C)C)cc1C1(c2cc(C(C)C)c(O)cc2C)OC(=O)c2ccccc21 [Thymolphthalein, thymolphthalein] | not affected | reproducible reduction |
